How the values were obtained:
normal, health subjects [1] = test: Example 4 tolerability study, mirtazapine and milnacipran; conditions: 6 weeks, 15 mg mirtazapine or 50 mg milnacipran
Method: (§1) The subjects receive 2 capsules per day, one in the morning and one at bedtime. […] All medications are administered in an over-encapsulated format that ensures blinding of study participants, staff and investigators. All subjects are scheduled to receive a total of 6 weeks of therapy, and are required to return to the clinics after 1, 2, 4 and 6 weeks of therapy. Patients are required to complete paper self-assessments, electronic diary assessments, computer based cognitive testing, as well as vital signs and weight assessments at the clinic visits.

normal, health subjects [2] = test: Example 1A tolerability study, mirtazapine and 1S,2R-enriched milnacipran; conditions: 6 weeks, milnacipran with 1S,2R:1R,2S ratio about 55:45 to 90:10
Method: as §1

normal, health subjects [3] = test: Example 1 tolerability study, mirtazapine and milnacipran or duloxetine; conditions: 6 weeks, 15 mg mirtazapine or 100 mg milnacipran or duloxetine
Method: as §1

[4] = tested on: reuptake of noradrenaline and serotonin; conditions: in vivo; cited from earlier work
[5] = controlled studies; cited from earlier work
normal, health subjects [6] = test: Example 5 tolerability study, mirtazapine and duloxetine; type: in vivo, human; conditions: 6 weeks, 15 mg mirtazapine or 30 mg duloxetine
[7] = tested on: chronic tension type headache; conditions: controlled trial; cited from earlier work
[8] = tested on: cancer patients with pain; conditions: open trial in cancer pain, 15 and 30 mg; cited from earlier work
[9] = tested on: patients with fibromyalgia; conditions: open study; cited from earlier work

Row | SMILES | side effects of the drug alone (normal, health subjects [1]) | side effects of the drug alone (normal, health subjects [2]) | side effects of the drug alone (normal, health subjects [3]) | potency for inhibiting the reuptake of both noradrenaline and serotonin [4] | appetite increase reported, share of patients [5] [%] | weight gain of greater than or equal to 7% of body weight reported, share of patients [5] [%] | side effects of the drug alone (normal, health subjects [6]) | efficacy in chronic tension type headache [7] | depression levels [8] | pain intensity [8] | activity in fibromyalgia pain [9]
1 | CCN(CC)C(=O)[C@@]1(c2ccccc2)C[C@H]1CN (racemic) [milnacipran, cis-(±)-2-(aminomethyl)-N,N-diethyl-1-phenylcyclopropanecarboxamide] | causes insomnia, nausea/vomiting, and weight loss | causes insomnia, nausea/vomiting, and weight loss | causes insomnia, nausea/vomiting, and weight loss | nearly equal potency |  |  |  |  |  |  | 
2 | CN(C)CCC=C1c2ccccc2CCc2ccccc21 [amitriptyline] |  |  |  |  | 6 | 5.9 |  |  |  |  | 
3 | CNCC[C@H](Oc1cccc2ccccc12)c1cccs1 [duloxetine, (+)-(S)—N-methyl-3-(1-naphthyloxy)-3-(thiophen-2-yl)-propan-1-amine] | causes insomnia, nausea/vomiting, and weight loss | causes insomnia, nausea/vomiting, and weight loss | causes insomnia, nausea/vomiting, and weight loss |  |  |  | causes insomnia, nausea/vomiting, and weight loss |  |  |  | 
4 | CN1CCN2c3ncccc3Cc3ccccc3C2C1 (stereo not drawn) [mirtazapine, 1,2,3,4,10,14b-hexahydro-2-methylpyrazino [2,1-a]pyrido[2,3-c]benzazepine] | does cause weight gain, sedation, and cognitive deficits | does cause weight gain, sedation, and cognitive deficits | does cause weight gain, sedation, and cognitive deficits |  |  |  | does cause weight gain, sedation, and cognitive deficits | suggested efficacy in chronic tension type headache | significant improvements were obtained in depression levels | pain intensity was not statistically improved | has some activity in fibromyalgia pain
